As a reminder, the pIC50 is the negative decadic logarithm of the IC50, by convention in mol/L.

pIC50: −log10 of the molar value. Like-named read-outs stand apart in the source and are kept apart here.

The test system of this assay is STING inhibition in human whole blood (IFNα2α production). Briefly: Human whole blood assay (HWBA): cGAMP-stimulated IFNα2α production. In kind it is cell-based. The method, boiled down:
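Na-citrate human whole blood from ≥3 healthy donors, preincubated 60 min at room temperature with compound (8 concentrations, top 10 μM, ~1:5 steps, 0.1% DMSO), then stimulated with cGAMP and incubated 22 h at 37 °C. Plasma IFNα2α measured by MSD immunoassay; % control versus stimulated/unstimulated wells, IC50 by 4-parameter logistic fit.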

Turning to `Cc1nc2nn(C)cc2cc1-n1nc(-c2cccc3nn(C[C@H](OCCF)c4ccccc4)cc23)c(C(C)C)c1C` [Example 78, 4-(1-{2,6-dimethyl-2H-pyrazolo[3,4-b]pyridin-5-yl}-5-methyl-4-(propan-2-yl)-1H-pyrazol-3-yl)-2-[(2R)-2-(2-fluoroethoxy)-2-phenylethyl]-2H-indazole], where the note is “Homo sapiens”, the pIC50 is 6.25.

Turning to `Cc1nc2nn(C)cc2cc1-n1nc(-c2cccc3nn(CC(O)C4CCCCC4)cc23)c(C(C)C)c1C` (stereo not shown) [Example 83, 1-cyclohexyl-2-[4-(1-{2,6-dimethyl-2H-pyrazolo[3,4-b]pyridin-5-yl}-5-methyl-4-(propan-2-yl)-1H-pyrazol-3-yl)-2H-indazol-2-yl]ethan-1-ol], the pIC50 (Homo sapiens) was 6.20.

As for `Cc1c(C(C)C)c(-c2cccc3nn(C[C@H](O)c4ccccc4)cc23)nn1-c1cc2cn(C)nc2nc1C(C)(C)O` [Example 89, 2-[5-(3-{2-[(2R)-2-hydroxy-2-phenylethyl]-2H-indazol-4-yl}-5-methyl-4-(propan-2-yl)-1H-pyrazol-1-yl)-2-methyl-2H-pyrazolo[3,4-b]pyridin-6-yl]propan-2-ol], where the note is “Homo sapiens”, the pIC50 was 6.00.

With `Cc1c(C(C)C)c(-c2cccc3nn(C[C@H](O)c4ccccc4)cc23)nn1-c1ccn2c(C(F)F)nnc2c1C1CC1` [Example 76], the pIC50 (Homo sapiens) is 6.28.

Molecule `CNc1nc2nn(C)cc2cc1-n1nc(-c2cccc3nn(C[C@H](O)c4ccccc4)cc23)c(C(C)C)c1C` [Example 84, (1R)-2-(4-{5-methyl-1-[2-methyl-6-(methylamino)-2H-pyrazolo[3,4-b]pyridin-5-yl]-4-(propan-2-yl)-1H-pyrazol-3-yl}-2H-indazol-2-yl)-1-phenylethan-1-ol] showed a pIC50 (Homo sapiens) of 6.19.

As to `Cc1cc([C@@H](O)Cn2cc3c(-c4nn(-c5cc6cn(C)nc6nc5C)c(C)c4C(C)C)cccc3n2)ccn1` [Example 82, (1R)-2-[4-(1-{2,6-dimethyl-2H-pyrazolo[3,4-b]pyridin-5-yl}-5-methyl-4-(propan-2-yl)-1H-pyrazol-3-yl)-2H-indazol-2-yl]-1-(2-methylpyridin-4-yl)ethan-1-ol], the pIC50 (Homo sapiens) is 6.21.

Consider `Cn1cc2cc(-c3nc(-c4cccc5nn(C[C@H](O)c6ccc(OCC#N)cc6)cc45)c(C4CC4)n3C)c(C3CC3)nc2n1` [Example 90, 2-{4-[(1R)-2-[4-(5-cyclopropyl-2-{6-cyclopropyl-2-methyl-2H-pyrazolo[3,4-b]pyridin-5-yl}-1-methyl-1H-imidazol-4-yl)-2H-indazol-2-yl]-1-hydroxyethyl]phenoxy} acetonitrile], for which the pIC50 (Homo sapiens) is 5.96.

`CCCO[C@@H](Cn1cc2c(-c3nn(-c4cc5cn(C)nc5nc4C)c(C)c3C(C)C)cccc2n1)c1ccccc1` [Example 81, 4-(1-{2,6-dimethyl-2H-pyrazolo[3,4-b]pyridin-5-yl}-5-methyl-4-(propan-2-yl)-1H-pyrazol-3-yl)-2-[(2R)-2-phenyl-2-propoxyethyl]-2H-indazole] had a pIC50 (Homo sapiens) of 6.21.

With `Cc1c(C(C)C)c(-c2cccc3nn(C[C@H](O)c4ccccc4)cc23)nn1-c1cc2cn(C)nc2nc1C1(C)CC1` [Example 80, (1R)-2-(4-{5-methyl-1-[2-methyl-6-(1-methylcyclopropyl)-2H-pyrazolo[3,4-b]pyridin-5-yl]-4-(propan-2-yl)-1H-pyrazol-3-yl}-2H-indazol-2-yl)-1-phenylethan-1-ol], the pIC50 (Homo sapiens) was 6.24.

As for `Cc1nc2nn(C)cc2cc1-n1nc(-c2cccc3nn(C[C@H](OCCC(C)(C)O)c4ccccc4)cc23)c(C(C)C)c1C` [Example 74, 4-[(1R)-2-[4-(1-{2,6-dimethyl-2H-pyrazolo[3,4-b]pyridin-5-yl}-5-methyl-4-(propan-2-yl)-1H-pyrazol-3-yl)-2H-indazol-2-yl]-1-phenylethoxy]-2-methylbutan-2-ol], under “Homo sapiens”, the pIC50 was 6.35.

In the case of `Cc1nc2nn(C)cc2cc1-n1nc(-c2cccc3nn(C[C@H](O)c4ccccc4)cc23)c(C2(C)CC2)c1C` [Example 92, (1R)-2-[4-(1-{2,6-Dimethyl-2H-pyrazolo[3,4-b]pyridin-5-yl}-5-methyl-4-(1-methylcyclopropyl)-1H-pyrazol-3-yl)-2H-indazol-2-yl]-1-phenylethan-1-ol], the pIC50 (Homo sapiens) was 5.70.

`CCc1c(-c2cccc3nn(C[C@H](O)c4ccccc4)cc23)nn(-c2cc3cn(C)nc3nc2C)c1CC` [Example 93, (1R)-2-[4-(1-{2,6-dimethyl-2H-pyrazolo[3,4-b]pyridin-5-yl}-4,5-diethyl-1H-pyrazol-3-yl)-2H-indazol-2-yl]-1-phenylethan-1-ol] had a pIC50 (Homo sapiens) of 5.62. This pIC50 and that of the molecule before are within 0.2 log units of each other.

In turn, `Cc1c(-n2nc(-c3cccc4nn(C[C@H](O)c5ccccc5)cc34)c(C(C)C)c2C)ccn2c(C)cnc12` [Example 94, (1R)-2-[4-(1-{3,8-dimethylimidazo[1,2-a]pyridin-7-yl}-5-methyl-4-(propan-2-yl)-1H-pyrazol-3-yl)-2H-indazol-2-yl]-1-phenylethan-1-ol] had a pIC50 (Homo sapiens) of 5.62.

`Cc1c(C(C)C)c(-c2cccc3nn(C[C@H](O)c4ccccc4)cc23)nn1-c1cc2cn(C)nc2nc1N(C)C` [Example 87, (1R)-2-(4-{1-[6-(dimethylamino)-2-methyl-2H-pyrazolo[3,4-b]pyridin-5-yl]-5-methyl-4-(propan-2-yl)-1H-pyrazol-3-yl}-2H-indazol-2-yl)-1-phenylethan-1-ol]: under “Homo sapiens”, the negative-log IC50 (pIC50) was 6.07.

Under “Homo sapiens”, `COCCO[C@@H](Cn1cc2c(-c3nn(-c4cc5cn(C)nc5nc4C)c(C)c3C(C)C)cccc2n1)c1ccccc1` [Example 85, 4-(1-{2,6-dimethyl-2H-pyrazolo[3,4-b]pyridin-5-yl}-5-methyl-4-(propan-2-yl)-1H-pyrazol-3-yl)-2-[(2R)-2-(2-methoxyethoxy)-2-phenylethyl]-2H-indazole] gave a pIC50 of 6.18.

The molecule `COC(C)c1nc2nn(C)cc2cc1-n1nc(-c2cccc3nn(C[C@H](O)c4ccccc4)cc23)c(C(C)C)c1C` (stereo partly shown) [Example 75] had a pIC50 of 6.35.

`C=CCO[C@@H](Cn1cc2c(-c3nn(-c4cc5cn(C)nc5nc4C)c(C)c3C(C)C)cccc2n1)c1ccccc1` [Example 79, 4-(1-{2,6-dimethyl-2H-pyrazolo[3,4-b]pyridin-5-yl}-5-methyl-4-(propan-2-yl)-1H-pyrazol-3-yl)-2-[(2R)-2-phenyl-2-(prop-2-en-1-yloxy)ethyl]-2H-indazole] gave a pIC50 (Homo sapiens) of 6.24.

On to `Cc1nc2nn(C)cc2cc1-n1nc(-c2cccc3nn(CC(O)c4ccc(Br)cc4)cc23)c(C(C)C)c1C` (stereo not shown) [Example 88, 1-(4-Bromophenyl)-2-[4-(1-{2,6-dimethyl-2H-pyrazolo[3,4-b]pyridin-5-yl}-5-methyl-4-(propan-2-yl)-1H-pyrazol-3-yl)-2H-indazol-2-yl]ethan-1-ol], for which, where the note is “Homo sapiens”, the pIC50 was 6.03.

For the molecule `Cc1c(-n2nc(-c3cccc4nn(C[C@H](O)c5ccccc5)cc34)c(C(C)C)c2C)ccn2c(C)nnc12` [Example 86, (1R)-2-[4-(1-{3,8-dimethyl-[1,2,4]triazolo[4,3-a]pyridin-7-yl}-5-methyl-4-(propan-2-yl)-1H-pyrazol-3-yl)-2H-indazol-2-yl]-1-phenylethan-1-ol], the pIC50 (Homo sapiens) is 6.16.

Turning to `[2H][C@](O)(Cn1cc2c(-c3nn(-c4cc5cn(C)nc5nc4C)c(C)c3C(C)C)cccc2n1)c1ccccc1` [Example 3, (1R)-2-[4-(1-{2,6-dimethyl-2H-pyrazolo[3,4-b]pyridin-5-yl}-5-methyl-4-(propan-2-yl)-1H-pyrazol-3-yl)-2H-indazol-2-yl]-1-phenyl(1-^2H)ethan-1-ol], the pIC50 (Homo sapiens) is 7.24.

As to `Cn1cc([C@@H](O)Cn2cc3c(-c4nc(-c5cc6cn(C)nc6nc5C5CC5)n(C)c4C4CC4)cccc3n2)cn1` [Example 91, (1R)-2-[4-(5-cyclopropyl-2-{6-cyclopropyl-2-methyl-2H-pyrazolo[3,4-b]pyridin-5-yl}-1-methyl-1H-imidazol-4-yl)-2H-indazol-2-yl]-1-(1-methyl-1H-pyrazol-4-yl)ethan-1-ol], for the setting “Homo sapiens”, the pIC50 is 5.80. This pIC50 lies 1.44 log units lower than the previous one.

Molecule `Cc1nc2nn(C)cc2cc1-n1nc(-c2cccc3nn(C[C@H](O)c4ccccc4)cc23)c(C(C)CO)c1C` (stereo partly drawn) [Example 95, 2-(1-{2,6-dimethyl-2H-pyrazolo[3,4-b]pyridin-5-yl}-3-{2-[(2R)-2-hydroxy-2-phenylethyl]-2H-indazol-4-yl}-5-methyl-1H-pyrazol-4-yl)propan-1-ol] showed a pIC50 (Homo sapiens) of 5.60.

The record behind these values is US20260265244A1, “HETEROCYCLIC COMPOUNDS AS STING ANTAGONISTS” (Boehringer Ingelheim International GmbH, priority 2022, published 2026).
